The text below walks through data of patent publication US20210346506A1, “PRODRUG OF ITRACONAZOLE AND USES THEREOF” (priority 2020, published 2021).

Data set [1] in a line: Compound stability test in mouse blood. In kind it is in vitro ADME. Particulars: 37° C., 1 μM; for half-life at 1 μM: male, CD-1, in vitro half-life in mouse blood; for Remaining Percentages (%): mouse blood. On the procedure: (§1) One (1) mM test compound working solution was prepared in DMSO. One (1) mM propantheline working solution was prepared in acetonitrile, wherein propantheline was used as positive control in this assay.
(§2) Ten (10) μL of each test compound solution and the control compound solution were respectively added into a 96 deep well plate, and 40 μL of acetonitrile:water (V/V=1:1) was added to each well to dilute the 1 mM test compound solution to 200 μM working solution.
(§3) Mouse blood (male CD-1 mouse blood, Pharmaron, Lot# PH-ADME-Mouse-20180329) or human blood (Pharmaron, Lot# PH-ADME-Human-20180329) of 398 μL was added to each well of an incubation plate, and then the incubation plate was pre-warmed at 37° C. for 15 minutes. After the pre-incubation, 2 μL of 200 μM working solution prepared above was spiked to the pre-warmed 398 μL blood to reach a final concentration of 1 μM. The final concentration of DMSO was 0.1% and the final concentration of acetonitrile was 0.2%. The assay was performed in duplicate.
(§4) The incubation plate was incubated at 37° C. water bath with shaking at 50 rpm, and aliquots of 50 μL were taken from each well of the incubation plate at 0, 10, 30, 60, 90, 120 and 180 minutes.
(§5) The reaction was stopped by the addition of 50 μL of pure water. The plate was vortexed for 30 seconds at 1,000 rpm and then added with 300 μL of cold acetonitrile containing internal standards (100 nM aprozolam, 200 nM caffeine, 100 nM tolbutamide).
(§6) All samples were vortexed for 10 minutes, followed by centrifugation at 14,000 rpm for 15 minutes to precipitate proteins. 100 μL of each supernatant was transferred to a new plate, and diluted with ultrapure water according to the LC-MS signal response and peak shape.
(§7) Samples were analyzed by LC-MS/MS.
(§8) • LC system: ACQUITY UPLC® I-Class • MS analysis: Waters XEVO® TQ-D with an ESI interface • Column temperature: 40° C. • Injection volume: 3 μL • Column: Waters XSelect HSS T3 C18, 2.5 μm, 2.1×50 mm column • Mobile phase: 0.1% formic acid in water (A) and 0.1% formic acid in acetonitrile (B)
(§9) • Ion source: Turbo spray • Ionization model: ESI • Scan type: MRM • Cone gas: 150 L/h • Desolvation gas: 1000 L/h • Desolvation temperature: 500° C. • Capillary voltage: 3.00 KV
(§10) All calculations were carried out using Microsoft Excel. Peak area ratios were determined from extracted ion chromatograms, and percent compounds remaining at each time point were calculated by the following equation:
(§11) Remaining Percentaget min(%)=Peak Area Ratiot min/Peak Area Ratio0 min×100, where Peak Area Ratiot min referred to peak area ratio of control and test compounds at t min; and Peak Area Ratio0 min referred to peak area ratio of control and test compounds at zero time point. The in vitro half-life (in vitro t1/2) was determined from the slope value: In vitro T1/2=−(0.693/k).

The nature of data set [2]: Compound stability test in human blood. It counts as in vitro ADME. Particulars: 37° C., 1 μM; for Remaining Percentages (%): human blood; for half-life at 1 μM: in vitro half-life in human blood. On the procedure:
as §1, §2, §3, §4, §5, §6, §7, §8, §9, §10, §11

As for `CC(C)[N+](C)(CCOC(=O)C1c2ccccc2Oc2ccccc21)C(C)C` [Propantheline, propantheline, reference compound], the half-life at 1 μM came out at 38.8 min in data set [1] and 32.8 min in data set [2]. In addition, the “Remaining Percentages (%)” value is recorded as 100% in data set [1] (0 min); 88.8% in data set [1] (10 min); 62.4% in data set [1] (30 min); 34.8% in data set [1] (60 min); 20.4% in data set [1] (90 min); 12.3% in data set [1] (120 min). The “Remaining Percentages (%)” value in data set [1] (180 min) came out at 4.44%; in data set [2] (0 min), 100%; in data set [2] (10 min) it was 85.5%; in data set [2] (30 min) it was 55.8%; in data set [2] (60 min), 29.2%; in data set [2] (90 min), 15.2%. Moreover, the “Remaining Percentages (%)” value in data set [2] (120 min) was determined as 6.83%; in data set [2] (180 min) it was 1.84%.
As for `CCC(C)n1ncn(-c2ccc(N3CCN(c4ccc(OCC5COC(Cn6c[n+](C)cn6)(c6ccc(Cl)cc6Cl)O5)cc4)CC3)cc2)c1=O.[Cl-]` (stereo not shown) [Compound 1], the half-life at 1 μM in data set [1] is 1.77 min; in data set [2], 23.1 min. In addition, the “Remaining Percentages (%)” value in data set [1] (0 min) is recorded as 100%; in data set [1] (10 min), 2.01%; in data set [1] (30 min), 0.00%; in data set [1] (60 min), 0.00%; in data set [1] (90 min) it was 0.00%; in data set [1] (120 min), 0.00%. In addition, the “Remaining Percentages (%)” value in data set [1] (180 min) was 0.00%; in data set [2] (0 min), 100%; in data set [2] (10 min), 68.5%; in data set [2] (30 min) it was 32.6%; in data set [2] (60 min), 12.3%; in data set [2] (90 min) it was 7.80%. The “Remaining Percentages (%)” value in data set [2] (120 min) is 2.02%; in data set [2] (180 min), 0.36%.
For the compound `CCC(C)n1ncn(-c2ccc(N3CCN(c4ccc(OCC5COC(Cn6c[n+](CC)cn6)(c6ccc(Cl)cc6Cl)O5)cc4)CC3)cc2)c1=O.[Cl-]` (stereo not shown) [Compound 2], the half-life at 1 μM in data set [1] is 11.8 min; in data set [2] it was 15.6 min. Moreover, the “Remaining Percentages (%)” value in data set [1] (0 min) is 100%; in data set [1] (10 min) it was 40.1%; in data set [1] (30 min) it was 16.2%; in data set [1] (60 min) it was 3.79%; in data set [1] (90 min) it was 0.90%; in data set [1] (120 min), 0.175%. Also, the “Remaining Percentages (%)” value in data set [1] (180 min) worked out at 0.00%; in data set [2] (0 min), 100%; in data set [2] (10 min), 60.3%; in data set [2] (30 min), 26.1%; in data set [2] (60 min), 8.47%; in data set [2] (90 min) it was 3.59%. Moreover, the “Remaining Percentages (%)” value in data set [2] (120 min) is on record as 1.66%; in data set [2] (180 min), 0.30%.
As for `CCC(C)n1ncn(-c2ccc(N3CCN(c4ccc(OCC5COC(Cn6c[n+](COC(=O)C(C)C)cn6)(c6ccc(Cl)cc6Cl)O5)cc4)CC3)cc2)c1=O.[Cl-]` (stereo not shown) [Compound 4], the half-life at 1 μM was 6.03 min in data set [1] and 17.7 min in data set [2]. Besides, the “Remaining Percentages (%)” value in data set [1] (0 min) is 100%; in data set [1] (10 min), 31.5%; in data set [1] (30 min), 4.04%; in data set [1] (60 min) it was “BLOD”; in data set [1] (90 min), “BLOD”; in data set [1] (120 min), “BLOD”. Also, the “Remaining Percentages (%)” value was “BLOD” in data set [1] (180 min); 100% in data set [2] (0 min); 61.0% in data set [2] (10 min); 30.2% in data set [2] (30 min); 8.93% in data set [2] (60 min); 4.67% in data set [2] (90 min). The “Remaining Percentages (%)” value in data set [2] (120 min) and in data set [2] (180 min) was “BLOD” each time.
With `CCCOC(=O)OC[n+]1cnn(CC2(c3ccc(Cl)cc3Cl)OCC(COc3ccc(N4CCN(c5ccc(-n6cnn(C(C)CC)c6=O)cc5)CC4)cc3)O2)c1.[Cl-]` (stereo not shown) [Compound 7], the half-life at 1 μM came out at 7.12 min in data set [1] and 5.07 min in data set [2]. The “Remaining Percentages (%)” value was 100% in data set [1] (0 min); 37.3% in data set [1] (10 min); “BLOD” in data set [1] (30 min); “BLOD” in data set [1] (60 min); “BLOD” in data set [1] (90 min); “BLOD” in data set [1] (120 min). The “Remaining Percentages (%)” value in data set [1] (180 min) is given as “BLOD”; in data set [2] (0 min) it was 100%; in data set [2] (10 min), 25.3%; in data set [2] (30 min) it was “BLOD”; in data set [2] (60 min), “BLOD”; in data set [2] (90 min) it was “BLOD”. For the same compound, the “Remaining Percentages (%)” value in data set [2] (120 min) and in data set [2] (180 min) was “BLOD” in each case.
For `CCC(C)n1ncn(-c2ccc(N3CCN(c4ccc(OCC5COC(Cn6c[n+](COC(=O)OC(C)C)cn6)(c6ccc(Cl)cc6Cl)O5)cc4)CC3)cc2)c1=O.[Cl-]` (stereo not shown) [Compound 8], the half-life at 1 μM turned out to be 21.9 min in data set [1] and 6.03 min in data set [2]. For the same compound, the “Remaining Percentages (%)” value in data set [1] (0 min) is reported as 100%; in data set [1] (10 min) it was 71.2%; in data set [1] (30 min), 40.2%; in data set [1] (60 min), 14.8%; in data set [1] (90 min), 7.0%; in data set [1] (120 min), 3.99%. In addition, the “Remaining Percentages (%)” value in data set [1] (180 min) was 1.03%; in data set [2] (0 min), 100%; in data set [2] (10 min) it was 31.6%; in data set [2] (30 min), 1.40%; in data set [2] (60 min) it was 0.785%; in data set [2] (90 min) it was 0.616%. Further, the “Remaining Percentages (%)” value in data set [2] (120 min) and in data set [2] (180 min) was “BLOD” in each case.
As for `CCC(C)n1ncn(-c2ccc(N3CCN(c4ccc(OCC5COC(Cn6c[n+](COC(=O)C(C)(C)C)cn6)(c6ccc(Cl)cc6Cl)O5)cc4)CC3)cc2)c1=O.[Cl-]` (stereo not shown) [Compound 5], the half-life at 1 μM in data set [1] turned out to be 4.84 min; in data set [2], 18.1 min. In addition, the “Remaining Percentages (%)” value was 100% in data set [1] (0 min); 23.9% in data set [1] (10 min); 1.48% in data set [1] (30 min); “BLOD” in data set [1] (60 min); “BLOD” in data set [1] (90 min); “BLOD” in data set [1] (120 min). Also, the “Remaining Percentages (%)” value in data set [1] (180 min) was “BLOD”; in data set [2] (0 min), 100%; in data set [2] (10 min) it was 69.4%; in data set [2] (30 min), 30.4%; in data set [2] (60 min), 9.76%; in data set [2] (90 min), 5.50%. In addition, the “Remaining Percentages (%)” value in data set [2] (120 min) is on record as 2.08%; in data set [2] (180 min), “BLOD”.

Broadly, the half-life is the time in which the quantity being followed falls by half.
